Literature values, collected in PubChem BioAssay AID1259410 (Chemical Carcinogenesis Research Information System (CCRIS), 2018).

Tested on: rodent tumor promotion studies, tumor incidence
Assay: CCRIS tumor promotion studies

Q: For `CNC(=O)Oc1ccccc1OC(C)C`, which outcome (Carcinogen: 7,12-DIMETHYLBENZ[A]ANTHRACENE, 57-97-6, Doses [Carcinogen]: 52 UG IN 100 µL ACETONE ONCE, Doses [Promoter]: 0, 100 MG/KG BW IN 100 µL ACETONE 3/WK FOR 51 WK BEGINNING 1/WK POST CARCINOGEN DOSE (STUDY DURATION: 52 WK), Route [Carcinogen]: DERMAL, Route [Promoter]: DERMAL, Species: MOUSE, Strain/Sex: SWISS/FEMALE) is on record?
A: skin: tumor

Q: And the outcome (Carcinogen: 7,12-DIMETHYLBENZ[A]ANTHRACENE, 57-97-6, Doses [Carcinogen]: 52 UG IN 100 µL ACETONE ONCE, Doses [Promoter]: 0, 100 MG/KG BW IN 100 µL ACETONE 3/WK FOR 51 WK BEGINNING 1 WK POST CARCINOGEN DOSE (STUDY DURATION: 52 WK), Route [Carcinogen]: DERMAL, Route [Promoter]: DERMAL, Species: MOUSE, Strain/Sex: SWISS/MALE)?
A: skin: tumor

Q: With H-HADGVFTSDYSRLLGQLSAKKYLESLI-NH2 as the molecule, how does the outcome (Carcinogen: AZOXYMETHANE, 25843-45-2, Doses [Carcinogen]: 7.4 MG/KG BW IN 0.9% SALINE 1/WK FOR 10 WK, Doses [Promoter]: 0, 4 NMOL/KG BW IN OLIVE OIL 1/2 D FOR DURATION OF STUDY (STUDY DURATION: 35 WK), Route [Carcinogen]: SUBCUTANEOUS, Route [Promoter]: SUBCUTANEOUS, Species: RAT, Strain/Sex: WISTAR/MALE, FEMALE) read?
A: colon: tumor

Q: For `COc1cc(NS(=O)(=O)c2ccc(N)cc2)nc(OC)n1`, which outcome (Carcinogen: Kojic acid, 501-30-4, Doses [Carcinogen]: 0.02, 0.2, 2% in diet for 8 wk before administration of promoter, Doses [Carcinogen]: 0.02, 0.2, 2% in diet for 8 wk before administration of promoter, Doses [Promoter]: 0.1% in drinking water from 8 wk to 31 wk of experiment, study duration 44 wk, Route [Carcinogen]: Oral, Route [Promoter]: Oral, Species: Rat, Strain/Sex: F344//Male (20/experimental group (10 killed at 31 wk & 10 killed at 44 wk); 15/controls)) is on record?
A: thyroid: negative for tumors

Q: And the outcome (Carcinogen: N-bis(2-hydroxypropyl)nitrosamine, 53609-64-6, Doses [Carcinogen]: 700 mg/kg, 4 injections administered over 8 wk before promoter, Doses [Promoter]: 0.1% in drinking water from 8 wk to 31 wk of experiment, study duration 44 wk, Route [Carcinogen]: Subcutaneous, Route [Promoter]: Oral, Species: Rat, Strain/Sex: F344//Male (20/experimental group (10 killed at 31 wk & 10 killed at 44 wk); 15/controls))?
A: thyroid: adenoma and carcinoma at both 31 and 44 wk

Q: For `C[S-].C[S-].N#[O+].N#[O+].N#[O+].N#[O+].[Fe].[Fe]`, which outcome (Carcinogen: 7,12-DIMETHYLBENZ[A]ANTHRACENE, 57-97-6, Doses [Carcinogen]: 100 NMOL IN 0.2 ML ACETONE ONCE, Doses [Promoter]: 300 NMOL 2/WK FOR 37 WK (STUDY DURATION: 37 WK), Route [Carcinogen]: DERMAL, Route [Promoter]: DERMAL, Species: MOUSE, Strain/Sex: BALB/FEMALE) is on record?
A: skin: papilloma or carcinoma

Q: What about the outcome (Carcinogen: 7,12-DIMETHYLBENZ[A]ANTHRACENE, 57-97-6, Doses [Carcinogen]: 100 NMOL IN 0.2 ML ACETONE ONCE, Doses [Promoter]: 450 NMOL 2/WK FOR 37 WK (STUDY DURATION: 37 WK), Route [Carcinogen]: DERMAL, Route [Promoter]: DERMAL, Species: MOUSE, Strain/Sex: BALB/FEMALE) of the same molecule?
A: skin: papilloma or carcinoma

Q: What about the outcome (Carcinogen: DIETHYLNITROSAMINE, 55-18-5, Doses [Carcinogen]: 25 MG/WK FOR 2 WK, Doses [Promoter]: 6 MG 2/WK FOR 114-669 D BEGINNING 2 WK POST LAST CARCINOGEN DOSE (STUDY DURATION: 669 D), Route [Carcinogen]: GAVAGE, Route [Promoter]: GAVAGE, Species: RAT, Strain/Sex: WISTAR) of the same molecule?
A: forestomach: papilloma

Q: Which outcome (Carcinogen: N-NITROSOBIS(2-OXOPROPYL)AMINE, 60599-38-4, Doses [Carcinogen]: 10 MG/KG 1/WK FOR 3 WK, Doses [Promoter]: 0, 2000 PPM IN DRINKING WATER BEGINNING POST CARCINOGEN TREATMENT AND CONTINUING FOR 37 WK (STUDY DURATION: 40 WK), Route [Carcinogen]: SUBCUTANEOUS, Route [Promoter]: ORAL, Species: HAMSTER, Strain/Sex: HAMSTER/FEMALE) does the source give for `Cn1c(=O)c2c(ncn2C)n(C)c1=O` here?
A: pancreas: adenocarcinoma

Q: Which outcome (Carcinogen: Diethylnitrosamine (DEN), 55-18-5, Doses [Carcinogen]: 30 mg/kg, single injection 12 d before initial administration of clofibrate, Doses [Promoter]: 0.5% in diet for up to 12 or 20 mo, Route [Carcinogen]: Intraperitoneal, Route [Promoter]: Oral, Species: Rat, Strain/Sex: F344/Male (175 divided into 4 groups, Vehicle control, DEN, DEN + clofibrate, and clofibrate)) does the source give for `CC(C)(Oc1ccc(Cl)cc1)C(=O)O` here?
A: liver: den injection accelerated the appearance of tumors without detectably mod

Q: Which outcome (Carcinogen: N-METHYL-N-NITROSOUREA, 684-93-5, Doses [Carcinogen]: 1 MG/100 G BW INJECTED INTO LEFT UTERINE TUBE ONCE, Doses [Promoter]: 0, 25 PPM IN DIET BEGINNING 1 WK POST CARCINOGEN TREATMENT (STUDY DURATION: 30 WK), Route [Carcinogen]: INJECTION, Route [Promoter]: ORAL, Species: MOUSE, Strain/Sex: ICR/FEMALE) does the source give for `C[C@]12CC[C@@H]3c4ccc(O)cc4CC[C@H]3[C@@H]1CCC2=O` here?
A: uterus (left): adenocarcinoma

Q: Which outcome (Carcinogen: AZOXYMETHANE, 25843-45-2, Doses [Carcinogen]: 7.4 MG/KG BW IN 0.9% SALINE 1/WK FOR 10 WK, Doses [Promoter]: 0, 20 UG/KG BW IN OLIVE OIL 1/2 D FOR DURATION OF STUDY (STUDY DURATION: 45 WK), Route [Carcinogen]: SUBCUTANEOUS, Route [Promoter]: SUBCUTANEOUS, Species: RAT, Strain/Sex: WISTAR/MALE) does the source give for `CC[C@H](C)[C@H](NC(=O)[C@H](CO)NC(=O)[C@H](CC(N)=O)NC(=O)[C@H](CC(C)C)NC(=O)[C@H](Cc1ccc(O)cc1)NC(=O)[C@H](CCCCN)NC(=O)[C@H](CCCCN)NC(=O)[C@@H](NC(=O)[C@H](C)NC(=O)[C@H](CCSC)NC(=O)[C@H](CCC(N)=O)NC(=O)[C@H](CCCCN)NC(=O)[C@H](CCCNC(=N)N)NC(=O)[C@H](CC(C)C)NC(=O)[C@H](CCCNC(=N)N)NC(=O)[C@@H](NC(=O)[C@H](Cc1ccc(O)cc1)NC(=O)[C@H](CC(N)=O)NC(=O)[C@H](CC(=O)O)NC(=O)[C@@H](NC(=O)[C@H](Cc1ccccc1)NC(=O)[C@@H](NC(=O)[C@H](C)NC(=O)[C@H](CC(=O)O)NC(=O)[C@H](CO)NC(=O)[C@@H](N)Cc1c[nH]cn1)C(C)C)[C@@H](C)O)[C@@H](C)O)C(C)C)C(=O)N[C@@H](CC(C)C)C(=O)N[C@@H](CC(N)=O)C(=O)O` here?
A: colon: tumor

Q: With `COc1ccc2c(c1)c(CC(=O)O)c(C)n2C(=O)c1ccc(Cl)cc1` as the molecule, how does the outcome (Carcinogen: N-(4-(5-NITRO-2-FURYL)-2-THIAZOLYL)FORMAMIDE, 24554-26-5, Doses [Carcinogen]: 0.2% IN DIET FOR 7 WK, Doses [Promoter]: 0, 1 MG/KG/D IN DRINKING WATER FOR DURATION OF STUDY (STUDY DURATION: 92 WK), Route [Carcinogen]: ORAL, Route [Promoter]: ORAL, Species: RAT, Strain/Sex: SPRAGUE-DAWLEY/FEMALE) read?
A: urinary tract: tumor

Q: Which results are given for `CC(=O)[O-].CC(=O)[O-].[OH-].[OH-].[OH-].[OH-].[Pb+2].[Pb+2].[Pb+2]`?
A: outcome (Carcinogen: N-ETHYL-N-(2-HYDROXYETHYL)NITROSAMINE, Doses [Carcinogen]: 0.1% IN DRINKING WATER FOR 1 WK, Doses [Promoter]: 0.1% IN DIET FOR 35 WK, Route [Carcinogen]: ORAL, Route [Promoter]: ORAL, Species: RAT, Strain/Sex: F344/MALE): kidney: renal cell tumor; outcome (Carcinogen: N-ETHYL-N-(2-HYDROXYETHYL)NITROSAMINE, Doses [Carcinogen]: 500 PPM IN DIET FOR TWO WK, Doses [Promoter]: 1000 PPM IN DIET FOR 20 WK, Route [Carcinogen]: ORAL, Route [Promoter]: ORAL, Species: RAT, Strain/Sex: WISTAR): kidney: adenoma, adenocarcinoma

Q: Which outcome (Carcinogen: DIMETHYLHYDRAZINE, 540-73-8, Doses [Carcinogen]: 20 MG/KG 1/WK FOR 10 WK, Doses [Promoter]: 0, 3.5% IN DIET FOR 10 WK BEGINNING POST CARCINOGEN TREATMENT (STUDY DURATION: 20 WK), Route [Carcinogen]: SUBCUTANEOUS, Route [Promoter]: ORAL, Species: MOUSE, Strain/Sex: NMRI/MALE) does the source give for `O=C([O-])/C=C/C(=O)[O-].[Fe+2]` here?
A: colon/rectum: tumor

Q: And the outcome (Carcinogen: DIMETHYLHYDRAZINE, 540-73-8, Doses [Carcinogen]: 20 MG/KG 1/WK FOR 10 WK, Doses [Promoter]: 0, 3.5% IN DIET FOR 10 WK CONCURRENTLY WITH CARCINOGEN TREATMENT (STUDY DURATION: 20 WK), Route [Carcinogen]: SUBCUTANEOUS, Route [Promoter]: ORAL, Species: MOUSE, Strain/Sex: NMRI/MALE)?
A: colon/rectum: tumor

Q: For `CC(C)(C)CC(C)(C)c1ccc(O)cc1`, which outcome (Carcinogen: N-ETHYL-N'-NITRO-N-NITROSOGUANIDINE, 4245-77-6, Doses [Carcinogen]: 20 MG/KG BW ONCE AT 3 MO OF AGE, Doses [Promoter]: 100 MG/KG BW IN DMSO BEGINNING AT 3 MO OF AGE, 5X/WK FOR FIRST 2 WK, 3X/WK FOR NEXT 11 WK, 2X/WK FOR STUDY DURATION (STU, Route [Carcinogen]: INTRAUTERINE, Route [Promoter]: SUBCUTANEOUS, Species: RAT, Strain/Sex: DONRYU/FEMALE) is on record?
A: uterus: adenocarcinoma

Q: What about the outcome (Doses [Carcinogen]: 20 MG/KG ONCE AT 11 WK OF AGE, Doses [Promoter]: 0, 100 MG/KG/D IN DMSO, EVERY OTHER DAY POSTNATAL DAYS 1 THROUGH 5 (STUDY DURATION: 15 MO), Route [Carcinogen]: INTRAUTERINE, Route [Promoter]: SUBCUTANEOUS, Species: RAT, Strain/Sex: DONRYU/FEMALE) of the same molecule?
A: uterus: adenocarcinoma

Q: What about the outcome (Doses [Carcinogen]: 20 MG/KG ONCE AT 11 WK OF AGE, Doses [Promoter]: 0, 100 MG/KG/D IN DMSO, EVERY OTHER DAY POSTNATAL DAYS 1 THROUGH 15 (STUDY DURATION: 15 MO), Route [Carcinogen]: INTRAUTERINE, Route [Promoter]: SUBCUTANEOUS, Species: RAT, Strain/Sex: DONRYU/FEMALE) of the same molecule?
A: uterus: adenocarcinoma

Q: For `CCCC1(CCCCCCCCCCCC(=O)OC2C(C)C3(O)C(C=C(CO)CC4(O)C(=O)C(C)=CC43)C3C(C)(C)C23OC(C)=O)OCC(C)(C)N1[O]` (stereo unspecified), which outcome (Carcinogen: 7,12-DIMETHYLBENZ[A]ANTHRACENE, 57-97-6, Doses [Carcinogen]: 100 NMOL ONCE, Doses [Promoter]: 0, 20 NMOL 2/WK FOR 24 WK BEGINNING 1 WK POST CARCINOGEN DOSE (STUDY DURATION: 25 WK), Route [Carcinogen]: DERMAL, Route [Promoter]: DERMAL, Species: MOUSE, Strain/Sex: NMRI/FEMALE) is on record?
A: skin: tumor
